Reference: the supplement of paper PMC10307832

Assays:
Assay in all cases: relative viability (nuclei count vs DMSO), 5 days (fraction); higher = more cells survive
COR-L 105 = system: COR-L 105
Outline: (§1)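 Lung cancer cell lines in 1536-well plates got either a single drug or a fixed anchor-drug dose together with five library-drug doses (not always all listed) in √10 steps, by pin tool, on the day after seeding. Nuclei were counted after 5 days, and relative viability is the treated-to-vehicle ratio of nuclei counts. Values are medians of duplicate plates.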

LCLC-103H = system: LCLC-103H
Outline: as §1

LK-2 = system: LK-2
Outline: as §1

NCI-H1355 = system: NCI-H1355
Outline: as §1

NCI-H1648 = system: NCI-H1648
Outline: as §1

NCI-H520 = system: NCI-H520
Outline: as §1

NCI-H522 = system: NCI-H522
Outline: as §1

O=c1cc(-c2cccc3c2Sc2ccccc2S3)oc(N2CCOCC2)c1 + CC(=O)c1c(C)c2cnc(Nc3ccc(N4CCNCC4)cn3)nc2n(C2CCCC2)c1=O [Palbociclib] (partner 0.5 µM)
relative viability (COR-L 105; first compound 0.08 µM): 0.349
relative viability (COR-L 105; first compound 0.253 µM): 0.319
relative viability (COR-L 105; first compound 0.8 µM): 0.385
relative viability (COR-L 105; first compound 2.53 µM): 0.413
relative viability (COR-L 105; first compound 8 µM): 0.416
relative viability (LCLC-103H; first compound 0.08 µM): 0.461
relative viability (LCLC-103H; first compound 0.253 µM): 0.51
relative viability (LCLC-103H; first compound 0.8 µM): 0.477
relative viability (LCLC-103H; first compound 2.53 µM): 0.46
relative viability (LCLC-103H; first compound 8 µM): 0.448
relative viability (LK-2; first compound 0.08 µM): 0.515
relative viability (LK-2; first compound 0.253 µM): 0.8
relative viability (LK-2; first compound 0.8 µM): 0.637
relative viability (LK-2; first compound 2.53 µM): 0.767
relative viability (LK-2; first compound 8 µM): 0.881
relative viability (NCI-H1355; first compound 0.08 µM): 0.396
relative viability (NCI-H1355; first compound 0.253 µM): 0.428
relative viability (NCI-H1355; first compound 0.8 µM): 0.371
relative viability (NCI-H1355; first compound 2.53 µM): 0.401
relative viability (NCI-H1355; first compound 8 µM): 0.264
relative viability (NCI-H1648; first compound 0.253 µM): 0.324
relative viability (NCI-H1648; first compound 0.8 µM): 0.281
relative viability (NCI-H1648; first compound 8 µM): 0.302
relative viability (NCI-H520; first compound 0.08 µM): 0.233
relative viability (NCI-H520; first compound 0.253 µM): 0.22
relative viability (NCI-H520; first compound 0.8 µM): 0.21
relative viability (NCI-H520; first compound 2.53 µM): 0.243
relative viability (NCI-H520; first compound 8 µM): 0.231
relative viability (NCI-H522; first compound 0.08 µM): 1.13
relative viability (NCI-H522; first compound 0.253 µM): 1.07
relative viability (NCI-H522; first compound 0.8 µM): 1.01
relative viability (NCI-H522; first compound 2.53 µM): 1.04
relative viability (NCI-H522; first compound 8 µM): 1

O=c1cc(N2CCOCC2)oc2c(-c3cccc4c3sc3ccccc34)cccc12 + Nc1nc2[nH]cc(CCc3ccc(C(=O)N[C@@H](CCC(=O)O)C(=O)O)cc3)c2c(=O)[nH]1 [Pemetrexed] (partner 0.2 µM)
relative viability (COR-L 105; first compound 0.01 µM): 1.09
relative viability (COR-L 105; first compound 0.03162 µM): 0.949
relative viability (COR-L 105; first compound 0.1 µM): 1.1
relative viability (COR-L 105; first compound 0.3162 µM): 0.997
relative viability (COR-L 105; first compound 1 µM): 0.854
relative viability (LCLC-103H; first compound 0.01 µM): 0.44
relative viability (LCLC-103H; first compound 0.03162 µM): 0.503
relative viability (LCLC-103H; first compound 0.1 µM): 0.485
relative viability (LCLC-103H; first compound 0.3162 µM): 0.465
relative viability (LCLC-103H; first compound 1 µM): 0.457
relative viability (LK-2; first compound 0.01 µM): 0.278
relative viability (LK-2; first compound 0.03162 µM): 0.238
relative viability (LK-2; first compound 0.1 µM): 0.296
relative viability (LK-2; first compound 0.3162 µM): 0.238
relative viability (LK-2; first compound 1 µM): 0.275
relative viability (NCI-H1355; first compound 0.01 µM): 1.12
relative viability (NCI-H1355; first compound 0.03162 µM): 0.915
relative viability (NCI-H1355; first compound 0.1 µM): 1.05
relative viability (NCI-H1355; first compound 0.3162 µM): 1.1
relative viability (NCI-H1355; first compound 1 µM): 0.981
relative viability (NCI-H1648; first compound 0.03162 µM): 0.681
relative viability (NCI-H1648; first compound 0.1 µM): 0.894
relative viability (NCI-H1648; first compound 0.3162 µM): 0.667
relative viability (NCI-H1648; first compound 1 µM): 0.583
relative viability (NCI-H520; first compound 0.01 µM): 0.646
relative viability (NCI-H520; first compound 0.03162 µM): 0.657
relative viability (NCI-H520; first compound 0.1 µM): 0.772
relative viability (NCI-H520; first compound 0.3162 µM): 0.623
relative viability (NCI-H520; first compound 1 µM): 0.659
relative viability (NCI-H522; first compound 0.01 µM): 1.11
relative viability (NCI-H522; first compound 0.03162 µM): 1.02
relative viability (NCI-H522; first compound 0.1 µM): 1.08
relative viability (NCI-H522; first compound 0.3162 µM): 1.13
relative viability (NCI-H522; first compound 1 µM): 0.831

O=c1cc(-c2cccc3c2Sc2ccccc2S3)oc(N2CCOCC2)c1 + CC(=O)Nc1cccc(-n2c(=O)n(C3CC3)c(=O)c3c(Nc4ccc(I)cc4F)n(C)c(=O)c(C)c32)c1 [Trametinib] (partner 0.02 µM)
relative viability (COR-L 105; first compound 0.08 µM): 0.397
relative viability (COR-L 105; first compound 0.253 µM): 0.359
relative viability (COR-L 105; first compound 0.8 µM): 0.383
relative viability (COR-L 105; first compound 2.53 µM): 0.434
relative viability (COR-L 105; first compound 8 µM): 0.461
relative viability (LCLC-103H; first compound 0.08 µM): 0.698
relative viability (LCLC-103H; first compound 0.253 µM): 0.713
relative viability (LCLC-103H; first compound 0.8 µM): 0.631
relative viability (LCLC-103H; first compound 2.53 µM): 0.662
relative viability (LCLC-103H; first compound 8 µM): 0.623
relative viability (LK-2; first compound 0.08 µM): 0.874
relative viability (LK-2; first compound 0.253 µM): 0.852
relative viability (LK-2; first compound 0.8 µM): 0.755
relative viability (LK-2; first compound 2.53 µM): 0.712
relative viability (LK-2; first compound 8 µM): 1.03
relative viability (NCI-H1355; first compound 0.08 µM): 0.524
relative viability (NCI-H1355; first compound 0.253 µM): 0.468
relative viability (NCI-H1355; first compound 0.8 µM): 0.348
relative viability (NCI-H1355; first compound 2.53 µM): 0.409
relative viability (NCI-H1355; first compound 8 µM): 0.352
relative viability (NCI-H1648; first compound 0.253 µM): 0.515
relative viability (NCI-H1648; first compound 0.8 µM): 0.427
relative viability (NCI-H1648; first compound 8 µM): 0.389
relative viability (NCI-H520; first compound 0.08 µM): 0.566
relative viability (NCI-H520; first compound 0.253 µM): 0.741
relative viability (NCI-H520; first compound 0.8 µM): 0.78
relative viability (NCI-H520; first compound 2.53 µM): 0.776
relative viability (NCI-H520; first compound 8 µM): 0.637
relative viability (NCI-H522; first compound 0.08 µM): 0.725
relative viability (NCI-H522; first compound 0.253 µM): 0.988
relative viability (NCI-H522; first compound 0.8 µM): 0.724
relative viability (NCI-H522; first compound 2.53 µM): 0.815
relative viability (NCI-H522; first compound 8 µM): 0.734
